Oligonucleotides are written 5' to 3', each unit as a sugar letter and its base; * is a phosphorothioate linkage, no mark a phosphodiester; rarer units and linkages stand in square brackets, end groups in braces. Plain capitals give the bases only. d = 2'-deoxy (DNA); r = 2'-OH (RNA)
Further: test concentration or dose not given here.

The target in the data set is P2RX3. Kind of data set: reporter assay of Huesken 2005. The note with it: siRNA. For orientation: A reporter such as luciferase makes a cellular process visible.
“sense rArCrUrCrCrUrUrCrArCrCrCrGrGrCrUrCrGrAdTdT / antisense rUrCrGrArGrCrCrGrGrGrUrGrArArGrGrArGrUdAdT”: the normalised inhibition (eCFP-eYFP dual reporter) came out at 80.2%.

For “sense rArCrGrCrCrArCrCrUrCrArGrGrGrCrArCrCrUdTdT / antisense rArGrGrUrGrCrCrCrUrGrArGrGrUrGrGrCrGrUdCdA”, the normalised inhibition (eCFP-eYFP dual reporter) amounted to 8.6%.

Take “sense rCrUrGrArArArArUrCrArGrArUrGrCrArArGrGdTdT / antisense rCrCrUrUrGrCrArUrCrUrGrArUrUrUrUrCrArGdTdA”: the normalised inhibition (eCFP-eYFP dual reporter) was found to be 85.5%.

In the case of “sense rCrArArGrGrArUrUrCrUrGrCrCrCrArGrArGrAdTdT / antisense rUrCrUrCrUrGrGrGrCrArGrArArUrCrCrUrUrGdCdA”, the normalised inhibition (eCFP-eYFP dual reporter) came out at 102%.

As to “sense rGrCrGrGrCrCrUrUrUrArCrUrUrCrUrGrUrGrGdTdT / antisense rCrCrArCrArGrArArGrUrArArArGrGrCrCrGrCdCdA”, the normalised inhibition (eCFP-eYFP dual reporter) was 61.4%.

As to “sense rUrCrArGrArCrArGrCrCrArGrUrGrCrGrGrGrCdTdT / antisense rGrCrCrCrGrCrArCrUrGrGrCrUrGrUrCrUrGrAdTdA”, the normalised inhibition (eCFP-eYFP dual reporter) was found to be 23.8%.

Take “sense rUrArArCrCrArArGrGrUrGrArArGrGrGrCrUrCdTdT / antisense rGrArGrCrCrCrUrUrCrArCrCrUrUrGrGrUrUrAdCdC”: the normalised inhibition (eCFP-eYFP dual reporter) was 16.2%.

In the case of “sense rGrCrArCrCrUrCrGrGrUrCrUrUrUrGrUrCrArUdTdT / antisense rArUrGrArCrArArArGrArCrCrGrArGrGrUrGrCdCdC”, the normalised inhibition (eCFP-eYFP dual reporter) came to 85.9%.

Regarding “sense rUrUrGrCrGrGrGrGrCrArGrGrArUrUrUrUrGrCdTdT / antisense rGrCrArArArArUrCrCrUrGrCrCrCrCrGrCrArAdAdC”, the normalised inhibition (eCFP-eYFP dual reporter) worked out at 33.4%.

Take “sense rCrUrUrCrCrCrArArCrCrUrGrArCrArGrCrCrAdTdT / antisense rUrGrGrCrUrGrUrCrArGrGrUrUrGrGrGrArArGdGdA”: the normalised inhibition (eCFP-eYFP dual reporter) was 66.3%.

Take “sense rCrCrUrGrArCrArGrCrCrArGrGrGrArCrArUrGdTdT / antisense rCrArUrGrUrCrCrCrUrGrGrCrUrGrUrCrArGrGdTdT”: the normalised inhibition (eCFP-eYFP dual reporter) was determined as 33.4%.

As for “sense rCrGrGrCrUrCrGrArCrArGrCrGrUrUrUrCrUrGdTdT / antisense rCrArGrArArArCrGrCrUrGrUrCrGrArGrCrCrGdGdG”, the normalised inhibition (eCFP-eYFP dual reporter) was found to be 86%.

With “sense rArUrGrUrGrUrCrUrGrArUrUrArCrGrUrGrArCdTdT / antisense rGrUrCrArCrGrUrArArUrCrArGrArCrArCrArUdCdC”, the normalised inhibition (eCFP-eYFP dual reporter) was 33.9%.

As to “sense rCrCrArArGrArUrGrArUrUrGrUrUrArCrUrGrAdTdT / antisense rUrCrArGrUrArArCrArArUrCrArUrCrUrUrGrGdTdG”, the normalised inhibition (eCFP-eYFP dual reporter) stood at 98.9%.

“sense rCrGrCrArCrCrCrUrCrCrUrGrArArGrGrCrUrUdTdT / antisense rArArGrCrCrUrUrCrArGrGrArGrGrGrUrGrCrGdGdT”: the normalised inhibition (eCFP-eYFP dual reporter) is 67.9%.

For the substance “sense rCrGrCrCrArCrCrUrCrArGrGrGrCrArCrCrUrCdTdT / antisense rGrArGrGrUrGrCrCrCrUrGrArGrGrUrGrGrCrGdTdC”, the normalised inhibition (eCFP-eYFP dual reporter) is 13%.

On to “sense rCrUrCrUrGrUrGrCrUrCrCrGrGrArCrCrUrGrUdTdT / antisense rArCrArGrGrUrCrCrGrGrArGrCrArCrArGrArGdCdT”, for which the normalised inhibition (eCFP-eYFP dual reporter) turned out to be 41.9%.

With “sense rArCrCrUrGrUrGrArGrArUrCrCrArGrGrGrCrUdTdT / antisense rArGrCrCrCrUrGrGrArUrCrUrCrArCrArGrGrUdCdC”, the normalised inhibition (eCFP-eYFP dual reporter) turned out to be 50.2%.

Regarding “sense rArCrCrArUrCrGrGrGrArUrCrArUrCrArArCrCdTdT / antisense rGrGrUrUrGrArUrGrArUrCrCrCrGrArUrGrGrUdCdC”, the normalised inhibition (eCFP-eYFP dual reporter) is 25.1%.

Take “sense rUrUrArArGrArUrCrGrGrCrUrGrGrGrUrGrUrGdTdT / antisense rCrArCrArCrCrCrArGrCrCrGrArUrCrUrUrArAdTdG”: the normalised inhibition (eCFP-eYFP dual reporter) was found to be 55.4%.

Turning to “sense rArCrCrArGrUrArCrArArArGrCrCrArArGrArAdTdT / antisense rUrUrCrUrUrGrGrCrUrUrUrGrUrArCrUrGrGrUdCdG”, the normalised inhibition (eCFP-eYFP dual reporter) was 82.9%.

With “sense rGrCrGrGrGrGrCrArGrGrArUrUrUrUrGrCrCrAdTdT / antisense rUrGrGrCrArArArArUrCrCrUrGrCrCrCrCrGrCdAdA”, the normalised inhibition (eCFP-eYFP dual reporter) came out at 67.8%.

As for “sense rGrGrGrUrArGrGrGrGrArCrGrUrGrGrUrCrArAdTdT / antisense rUrUrGrArCrCrArCrGrUrCrCrCrCrUrArCrCrCdGdC”, the normalised inhibition (eCFP-eYFP dual reporter) came out at 94.9%.

Turning to “sense rGrGrUrArCrGrGrGrArCrArCrArGrCrCrArUrUdTdT / antisense rArArUrGrGrCrUrGrUrGrUrCrCrCrGrUrArCrCdTdG”, the normalised inhibition (eCFP-eYFP dual reporter) turned out to be 61.2%.

Consider “sense rArUrCrGrGrGrArUrCrArUrCrArArCrCrGrArGdTdT / antisense rCrUrCrGrGrUrUrGrArUrGrArUrCrCrCrGrArUdGdG”, for which the normalised inhibition (eCFP-eYFP dual reporter) came to 39.3%.

Take “sense rUrGrArCrArGrCrCrArGrGrGrArCrArUrGrArAdTdT / antisense rUrUrCrArUrGrUrCrCrCrUrGrGrCrUrGrUrCrAdGdG”: the normalised inhibition (eCFP-eYFP dual reporter) amounted to 90.5%.

For “sense rCrArGrGrCrUrArCrArArCrUrUrCrArGrGrUrUdTdT / antisense rArArCrCrUrGrArArGrUrUrGrUrArGrCrCrUrGdGdG”, the normalised inhibition (eCFP-eYFP dual reporter) amounted to 95.5%.

On to “sense rArArUrCrArGrArUrGrCrArArGrGrArUrUrCrUdTdT / antisense rArGrArArUrCrCrUrUrGrCrArUrCrUrGrArUrUdTdT”, for which the normalised inhibition (eCFP-eYFP dual reporter) was determined as 79.2%.

In the case of “sense rCrUrGrArUrUrArCrGrUrGrArCrGrCrCrArCrCdTdT / antisense rGrGrUrGrGrCrGrUrCrArCrGrUrArArUrCrArGdAdC”, the normalised inhibition (eCFP-eYFP dual reporter) was found to be 50%.

Turning to “sense rCrUrCrGrArCrArGrCrGrUrUrUrCrUrGrArGrAdTdT / antisense rUrCrUrCrArGrArArArCrGrCrUrGrUrCrGrArGdCdC”, the normalised inhibition (eCFP-eYFP dual reporter) is 64.2%.

Regarding “sense rGrArGrArArArArGrCrArGrCrGrUrGrUrCrCrCdTdT / antisense rGrGrGrArCrArCrGrCrUrGrCrUrUrUrUrCrUrCdAdG”, the normalised inhibition (eCFP-eYFP dual reporter) turned out to be 68.3%.

For the substance “sense rGrArGrUrArGrUrUrCrArGrCrUrUrCrUrGrArUdTdT / antisense rArUrCrArGrArArGrCrUrGrArArCrUrArCrUrCdGdG”, the normalised inhibition (eCFP-eYFP dual reporter) was 91.8%.

Consider “sense rUrCrGrGrCrUrGrGrGrUrGrUrGrCrGrArCrUrUdTdT / antisense rArArGrUrCrGrCrArCrArCrCrCrArGrCrCrGrAdTdC”, for which the normalised inhibition (eCFP-eYFP dual reporter) was 77.1%.

Turning to “sense rArGrUrUrCrArGrCrUrUrCrUrGrArUrCrArUrCdTdT / antisense rGrArUrGrArUrCrArGrArArGrCrUrGrArArCrUdAdC”, the normalised inhibition (eCFP-eYFP dual reporter) was 72.3%.

As to “sense rArUrUrGrUrUrArCrUrGrArArArArUrCrArGrAdTdT / antisense rUrCrUrGrArUrUrUrUrCrArGrUrArArCrArArUdCdA”, the normalised inhibition (eCFP-eYFP dual reporter) is 74.6%.

The values above are taken from the OligoGym collection.
